70 compounds from ChEMBL document CHEMBL5604063, “ASAP - DENV-2 NS2B-NS3 protease fluorescence dose response” (2024) can be followed below.

This experiment deals with Genome polyprotein (dengue virus type 2, UniProt P29990). The class given is functional, Thailand/16681/1984.

Values joined by “and” are separate entries in the source; they are usually repeats but may differ in a detail not shown here. Equal entries are not always repeated.

Chain of Genome polyprotein (P29990 1346-1475 limits assumed): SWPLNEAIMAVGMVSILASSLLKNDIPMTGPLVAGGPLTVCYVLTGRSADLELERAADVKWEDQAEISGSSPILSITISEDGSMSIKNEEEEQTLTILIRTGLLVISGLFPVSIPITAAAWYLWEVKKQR
Chain of Genome polyprotein (P29990 1476-2093 limits assumed): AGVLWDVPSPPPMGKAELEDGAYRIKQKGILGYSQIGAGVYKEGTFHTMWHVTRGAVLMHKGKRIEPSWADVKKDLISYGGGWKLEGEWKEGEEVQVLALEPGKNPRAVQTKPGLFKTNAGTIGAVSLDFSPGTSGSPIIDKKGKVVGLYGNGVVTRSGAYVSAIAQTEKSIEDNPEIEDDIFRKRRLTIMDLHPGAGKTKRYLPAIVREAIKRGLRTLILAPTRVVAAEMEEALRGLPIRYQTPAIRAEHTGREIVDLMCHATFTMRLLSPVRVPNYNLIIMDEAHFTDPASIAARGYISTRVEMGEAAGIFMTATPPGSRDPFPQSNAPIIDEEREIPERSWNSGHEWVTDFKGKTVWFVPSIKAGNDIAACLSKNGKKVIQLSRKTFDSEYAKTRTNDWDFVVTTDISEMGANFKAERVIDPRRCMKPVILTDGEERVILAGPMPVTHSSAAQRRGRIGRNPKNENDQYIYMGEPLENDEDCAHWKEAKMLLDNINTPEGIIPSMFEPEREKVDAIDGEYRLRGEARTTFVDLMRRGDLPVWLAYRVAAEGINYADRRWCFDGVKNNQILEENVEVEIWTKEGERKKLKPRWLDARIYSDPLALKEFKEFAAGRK

Take `O=C1c2c(O)ccc([N+](=O)[O-])c2C(=O)c2c([N+](=O)[O-])ccc(O)c21`: the 50% inhibitory concentration (IC50) is 12.7 µM and > 99.5 µM.
On to `O=C(C(=O)N1CCOCC1)c1c[nH]c2ccccc12`, for which the IC50 was over 99.5 µM.
Regarding `COc1ccc(S(=O)(=O)n2nc(OC(=O)c3cccc(-c4ccccc4Cl)c3)cc2N)cc1`, the half-maximal inhibitory concentration (IC50) was over 99.5 µM.
Then `CCCCCC(=O)N[C@H](C(=O)NCc1cccc(CN)c1)c1ccc(OCc2ccccc2)cc1`, with 84.6 µM; and `NC(=O)c1cccc(NC(=O)[C@@H](NC(=O)c2ccc(Oc3ccc(C(F)(F)F)cc3)cc2)c2ccc(OCc3ccccc3)cc2)c1`, with over 99.5 µM.
Then `O=C(Nc1ccc2c(c1)B(O)OC2)c1cccc(OCc2c(Cl)cccc2Cl)c1`, with over 99.5 µM; and `COc1ccc(S(=O)(=O)Nc2ccc(C(=O)Nc3nc4ccccc4s3)cc2)cc1`, with over 99.5 µM; and `CN(C)c1ccc(/C=C/C(=O)C(=O)N2CCOCC2)cc1`, with 88.8 µM.
The figure for `Nc1ccc(C(=O)Nc2nc3ccccc3s2)nc1` is over 99.5 µM; for `O=S(=O)(Nc1ccc(Oc2ccccc2Cl)cc1)c1c[nH]c2ccc(Cl)cc12` it is over 99.5 µM; for `Cc1nnc([C@H](C)n2cc(C3CCNCC3)c(C)n2)o1` it is over 99.5 µM.
In turn, `CCCC[C@@H](NC(=O)OC(C)(C)C)C(=O)N[C@@H](C(=O)NCc1ccc(CN)cc1)c1ccc(OCc2ccccc2)cc1` displayed an IC50 of 36.4 µM.
For the compound `O=C(/C=C/c1ccc(N2CCNCC2)cc1)C(=O)N1CCOCC1`, the IC50 was over 99.5 µM.
Consider `CNC(=O)c1cccc(CNc2cc(Cl)cc(C(=O)NC(C)(C)CO)c2)c1`, for which the concentration for half-maximal inhibition (IC50) was over 99.5 µM.
Take `CNC(=O)c1cc(OC)ccc1NS(=O)(=O)c1ccc(Oc2ccccc2Cl)cc1`: the IC50 is over 99.5 µM.
`CNC(=O)c1cc(C#N)ccc1NS(=O)(=O)c1ccc(Oc2ccccc2Cl)cc1` returned a half-maximal inhibitory concentration (IC50) of 44.8 µM.
Then `NC(=O)c1cn(C[C@H]2CCCN2c2ccnc3ccccc23)nn1`, with over 99.5 µM.
`Nc1ccc(/C=C/C(=O)C(=O)N2CCN(CCc3ccccc3)CC2)cc1` displayed an IC50 of over 99.5 µM.
The figure for `CCCC[C@H](NC(C)=O)C(=O)N[C@H](C(=O)NCc1ccc(CN)cc1)c1ccccc1` is over 99.5 µM; for `CCn1ccnc(N2CC[C@H](c3cccnc3)C2)c1=O` it is over 99.5 µM; for `CCn1ccnc(N2CC[C@H](c3ccn[nH]3)C2)c1=O` it is over 99.5 µM.
Take `NC(=O)c1ccccc1NS(=O)(=O)c1ccc(Oc2ccccc2Cl)cc1`: the 50% inhibitory concentration (IC50) is over 99.5 µM.
Then `CCn1ccnc(N2C[C@@H](O)[C@H](c3c[nH]c4ccccc34)C2)c1=O`, with over 99.5 µM; and `O=C(O)c1cccc(NC(=O)c2cccc(OCc3c(Cl)cccc3Cl)c2)c1`, with over 99.5 µM.
On to `CNC(=O)c1cccc(CCC(=O)Nc2cc(Cl)cc(C(=O)NC(C)(C)CO)c2)c1`, for which the IC50 was over 99.5 µM.
In the case of `N=C(N)NCCc1ccc(OC(=O)Nc2ccccc2)cc1`, the concentration for half-maximal inhibition (IC50) was over 99.5 µM.
`Cc1cc(NS(=O)(=O)c2ccc(Oc3ccccc3Cl)cc2)c(C(=O)NCC(F)(F)F)cc1F` gave a half-maximal inhibitory concentration (IC50) of 22.1 µM.
`CCCC[C@H](NC(=O)OC(C)(C)C)C(=O)N[C@H](C(=O)NCc1ccc(C(N)=O)cc1)c1ccc(OCc2ccccc2)cc1`: the IC50 is over 99.5 µM.
The figure for `CCn1ccnc(N2CC[C@@H](C(=O)NC)C2)c1=O` is over 99.5 µM; for `N#Cc1cccc(NC(=O)c2cccc(OCc3c(Cl)cccc3Cl)c2)c1` it is over 99.5 µM.
Then `O=C(c1cc(Cl)ccc1NS(=O)(=O)c1ccc(Oc2ccccc2Cl)cc1)N1CCCC1`, with 66.2 µM; and `CS(=O)(=O)Nc1ccc(C(=O)Nc2nc3ccccc3s2)cc1`, with over 99.5 µM.
Compound `CNC(=O)c1cc(Br)cnc1NS(=O)(=O)c1ccc(Oc2ccccc2Cl)cc1` gave an IC50 of 71.4 µM.
As to `CCn1ccnc(N2CCC(c3c[nH]c4ccccc34)CC2)c1=O`, the IC50 is over 99.5 µM.
The figure for `COc1cc(Cc2c(-c3ccc(F)cc3)noc2C)nc(N2CCNCC2)n1` is over 99.5 µM; for `CC(C)Nc1nc2ccc(C(=O)Nc3nnnn3-c3ccccn3)cc2[nH]1` it is over 99.5 µM; for `CCn1ccnc(N2CC[C@@H](CC(N)=O)C2)c1=O` it is over 99.5 µM.
`N=C(N)Nc1ccc(NC(=O)Oc2ccccc2)cc1`: the IC50 is over 59.8 µM.
`COc1cc(COc2cncc3ccccc23)nc(N2CCNCC2)n1` showed a 50% inhibitory concentration (IC50) of over 99.5 µM.
`O=S(=O)(Nc1ccc(Cl)cc1)c1ccc(Oc2ccccc2Cl)cc1` registered an IC50 of over 99.5 µM.
In the case of `CCn1ccnc(N2CC[C@H](c3cccc(C#N)c3)C2)c1=O`, the half-maximal inhibitory concentration (IC50) is over 99.5 µM.
The compound `CN(C)Cc1ccc(C(=O)Nc2cc(Cl)cc(C(=O)NC(C)(C)CO)c2)[nH]1` yielded an IC50 of over 99.5 µM.
Regarding `CCn1ccnc(N2CC[C@H](c3c[nH]c4ccccc34)C2)c1=O`, the 50% inhibitory concentration (IC50) is over 99.5 µM.
`N=C(N)Nc1ccc(OC(=O)Nc2ccccc2)cc1` displayed an IC50 of over 99.5 µM.
Then `O=C(NCC1CC1)c1cc(Cl)ccc1NS(=O)(=O)c1ccc(Oc2ccccc2Cl)cc1`, with 22 µM.
The figure for `NCc1ccc(/C=C/C(=O)C(=O)N2CCOCC2)cc1` is over 99.5 µM.
The compound `CCn1ccnc(N2CC[C@H](c3ccc(OC)nc3)C2)c1=O` showed a 50% inhibitory concentration (IC50) of over 99.5 µM.
As to `CCn1ccnc(N2CC[C@H](C3CCOCC3)C2)c1=O`, the half-inhibitory concentration (IC50) is over 99.5 µM.
Compound `N=C(N)NCCc1ccc(NC(=O)Oc2ccccc2)cc1` displayed an IC50 of over 99.5 µM.
On to `CNC(=O)c1cc(Cl)ccc1NS(=O)(=O)c1ccc(Oc2ccccc2Cl)cc1`, for which half-maximal inhibition (IC50) was put at 33.7 µM.
`CCn1ccnc(N2CC[C@H](c3ccncc3)C2)c1=O` yielded an IC50 of over 99.5 µM.
Take `CCCC[C@H](NC(C)=O)C(=O)N[C@H](C(=O)Nc1ccc(C(N)=O)cc1)c1ccc(OCc2ccccc2)cc1`: the 50% inhibitory concentration (IC50) was over 99.5 µM.
The compound `CC(C)(CO)NC(=O)c1cc(Cl)cc(NC(=O)c2cc(Cl)ccc2O)c1` returned an IC50 of over 99.5 µM.
Regarding `CS(=O)(=O)c1ccc(N2CCNCC2)cc1NC(=O)c1cccc2ncccc12`, the IC50 is over 99.5 µM.
With `CCn1ccnc(N2CC[C@H](C#N)C2)c1=O`, the half-inhibitory concentration (IC50) is over 99.5 µM.
With `CCn1ccnc(N2CC[C@@H](CO)C2)c1=O`, the IC50 was over 99.5 µM.
Then `CCn1ccnc(N2CC[C@@H](Cc3ccncc3)C2)c1=O`, with over 99.5 µM; and `O=C(O)c1cccc(NC(=O)c2ccc3[nH]ccc3c2)c1`, with over 99.5 µM.
Regarding `CCn1ccnc(N2CC[C@@H](CC#N)C2)c1=O`, the 50% inhibitory concentration (IC50) was over 99.5 µM.
Compound `CCCC[C@H](NC(C)=O)C(=O)N[C@H](C(=O)NCc1ccc(CN)cc1)c1ccc(OCc2ccccc2)cc1` had a half-inhibitory concentration (IC50) of 77.3 µM.
Compound `Cc1cc(-n2nccc2NC(=O)[C@]2(c3ccc(F)cc3)CCCNC2)ncn1` returned a 50% inhibitory concentration (IC50) of over 99.5 µM.
With `N=C(N)NCCc1cccc(B(O)O)c1`, the concentration for half-maximal inhibition (IC50) is over 99.5 µM.
Turning to `N=C(N)NCc1ccc(NC(=O)Oc2ccccc2)cc1`, the IC50 was over 59.8 µM.
Then `N=C(N)NCc1ccc(OC(=O)Nc2ccccc2)cc1`, with over 99.5 µM; and `O=C(NCc1ccccc1)c1cc(O)ccc1NS(=O)(=O)c1ccc(Oc2ccccc2Cl)cc1`, with 86.4 µM.
With `CC[C@H]1CCN(c2nccn(CC)c2=O)C1`, the IC50 is over 99.5 µM.
`O=C(O)c1cc(Cl)ccc1NS(=O)(=O)c1ccc(Oc2ccccc2Cl)cc1` gave an IC50 of 13.8 µM.
Turning to `CC(C)(CO)NC(=O)c1cc(Cl)cc(NC(=O)c2ccc(O)nc2)c1`, the IC50 is over 99.5 µM.
For the compound `CCn1ccnc(N2CC[C@H](c3ccc(C#N)cc3)C2)c1=O`, the 50% inhibitory concentration (IC50) was over 99.5 µM.
For `O=C(Nc1ccc(F)nc1)Oc1ccccc1`, the IC50 is over 59.8 µM.
